How the values were obtained:
[1] = target: T1, aromatase activity in JAR choriocarcinoma placental cells (Homo sapiens, UniProt P11511); assay: Tritiated water-release assay in JAR cells; type: cell-based; conditions: 24 h, 15 μM (FIG. 11), read-out: decrease of aromatase activity in JAR cells
T1 construct: JAR choriocarcinoma placental cells (which produce aromatase expression from promoter I.1 mediated by protein kinase C); host or cells: JAR
T1 sequence (P11511 1-503): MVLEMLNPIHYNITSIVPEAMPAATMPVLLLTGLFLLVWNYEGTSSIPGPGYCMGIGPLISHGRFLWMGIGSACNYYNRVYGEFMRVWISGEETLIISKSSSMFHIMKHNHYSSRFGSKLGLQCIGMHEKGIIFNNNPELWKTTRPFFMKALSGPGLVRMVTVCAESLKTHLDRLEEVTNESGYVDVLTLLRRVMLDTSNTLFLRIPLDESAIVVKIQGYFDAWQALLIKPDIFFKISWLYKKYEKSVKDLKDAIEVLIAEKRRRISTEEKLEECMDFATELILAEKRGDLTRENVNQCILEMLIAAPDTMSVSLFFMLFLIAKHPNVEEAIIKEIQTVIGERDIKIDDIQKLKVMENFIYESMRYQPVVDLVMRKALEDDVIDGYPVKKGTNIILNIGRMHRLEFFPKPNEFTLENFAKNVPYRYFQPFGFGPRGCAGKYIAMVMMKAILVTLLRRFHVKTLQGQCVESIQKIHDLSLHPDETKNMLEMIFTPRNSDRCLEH
Procedure: Cell Culture. AR and SK-BR-3 cells were obtained from ATCC (Rockville, Md.). SK-BR-3 cells were maintained in phenol red-free custom media (MEM, Earle's salts, 1.5× amino acids, 2× non-essential amino acids, L-glutamine, 1.5× vitamins, Gibco BRL) supplemented with 10% fetal bovine serum (FBS), 2 mM L-glutamine and 20 mg/L gentamycin. JAR cells were maintained in RPMI 1640 medium with 2 mM L-glutamine adjusted to contain 1.5 g/L sodium bicarbonate, 4.5 g/L glucose, 10 mM HEPES, and 1.0 mM sodium pyruvate, 90%; FBS, 10%. Fetal bovine serum was heat inactivated for 30 min in a 56° C. water bath before use. Cell cultures were grown at 37° C., in a humidified atmosphere of 5% CO2 in a Hereaus CO2 incubator. For all experiments, cells were plated in 6 well plates and grown to subconfluency. Before treatment, the media was changed to a defined one containing DMEM/F12 media (Sigma) with 1.0 mg/mL human albumin (OSU Hospital Pharmacy), 5.0 mg/L human transferin and 5.0 mg/L bovine insulin.
Tritiated water-release assay in JAR and SK-BR-3 cell lines. Measurement of aromatase enzyme activity was based on the tritium water release assay. Cells in six well plates were treated with 0.1% DMSO (control), and inhibitors at the indicated concentrations. After 24 hours, the cells were incubated 3 hours (SK-BR-3 cells) or 1 hour (JAR cells) with fresh media along with 100 nM [1β-^3H]-androst-4-ene-3,17-dione (1 μCi). Subsequently, the reaction mixture was removed, and proteins were precipitated using 10% trichloroacetic acid at 42° C. for 20 min. After a brief centrifugation, the media was extracted three times with an equal amount of chloroform to remove remaining substrate and further treated with dextran-treated charcoal. After centrifugation, a 250-μl aliquot containing the product was counted in 5 ml of liquid scintillation mixture. Results were corrected for blanks and for the cell contents of culture flasks, and results were expressed as picomoles of ^3H2O formed per hour incubation time per million live cells (pmol/h/10^6 cells). To determine the amount of cells in each flask, the cells were lysed and analyzed using the diphenylamine DNA assay adapted to a 96-well plate. IC50 sigmoidal dose-response data were analyzed with Microsoft Excel and the Graphpad Prism (Version 3.0) program.
Diphenylamine DNA Assay To determine the amount of viable cells in each flask, the cells were lysed with 0.5N NaOH aqueous solution and analyzed using the diphenylamine DNA assay adapted to a 96-well plate. DNA standards (0-30 μg) were prepared using double-stranded DNA reconstituted in PBS and added in triplicates directly to the wells. A uniform cell suspension was prepared from the 6 well plate in 300 μl 0.5N NaOH aqueous solution, and 60 μl of the unknown samples were added in triplicates to separate wells. A solution of 0.16% acetaldehyde in water was prepared and mixed at a 1:5 ratio with perchloric acid (20% vol/vol). This solution (60 μl) was added to each well along with 100 μl of a 4% diphenylamine solution in glacial acetic acid. The plates were incubated at 37° C. for 24 hours. After centrifugation, 100 μl supernatant of each well was transferred to a new 96 well plate, and the OD595 was measured using a microplater reader. The DNA concentration was determined by extrapolation to the standard curve and the amount of cells/well was calculated using the equation: 1 cell≈7 pg DNA.

SK-BR-3 cells = assay: Analysis of apoptosis (single-stranded DNA ELISA) in SK-BR-3 cells; type: cell-based, human; conditions: 5 μM, 24 hours (FIG. 16)
Procedure: Analysis of apoptosis. Apoptosis was determined by selective denaturation of DNA in apoptotic cells by formamide and detection of denatured DNA with a monoclonal antibody to single-stranded DNA using an ELISA kit (CHEMICON, Temecula, Calif.). Cells were plated in a 96-well flat bottom plate from 0.5×10^4 to 1×10^4 cells/well in custom media. Cells were allowed to adhere to wells overnight. Following incubation, compounds were made up in define media and a 5 μM screen was performed in each cell line with respective compounds in triplicate for 24 hours. Following treatment, the plate was centrifuged at 200×g for 5 min, media was removed followed by the addition of 200 μl of fixative. The plate was incubated for 30 min at 37° C., at which point the fixative was removed and the plate dried for 1-2 hours at room temperature. Fifty microliters of formamide was added to each well following a brief incubation at room temperature for 10 min. The DNA in apoptotic cells was denatured by heating the plate for 10 min, then briefly cooling the plate for 5 min at 4° C. following removal of formamide. The plate was rinsed three times with 200 μl of PBS following one hour incubation at 37° C. with 200 μl of 3% blocking agent. After removal of the blocking agent, 100 μl of antibody mixture were added to each well for 30 min at room temperature. The plate was washed three times with 1× wash buffer using 250 μl of wash buffer/well followed by the addition of 200 μl of ABTS solution added to each well for a 15-60 minute incubation. The reaction was stopped by the addition of 100 μl of a stop solution added to each well and absorbance was measured at 405 nm on a SpectroMax 340 UV PlateReader.

SMILES: Cc1ccc(COc2cc([N+](=O)[O-])ccc2N(C)S(C)(=O)=O)cc1 [Compound 30c, N-methyl-N-[2-(4′-methylbenzyloxy)-4-nitrophenyl]methanesulfonamide]
- inhibition at 15 µM [1]: < 50%
- apoptotic effects (SK-BR-3 cells): do not produce apoptotic effects

SMILES: CN(c1ccc([N+](=O)[O-])cc1OCc1ccc(F)cc1)S(C)(=O)=O [Compound 33c, N-methyl-N-[2-(4′-fluorobenzyloxy)-4-nitrophenyl]methanesulfonamide]
- inhibition at 15 µM [1]: < 50%
- apoptotic effects (SK-BR-3 cells): do not produce apoptotic effects

SMILES: CN(c1ccc([N+](=O)[O-])cc1OCc1ccc2ccccc2c1)S(C)(=O)=O [Compound 28c, N-methyl-N-[2-(β-naphthylmethoxy) 4-nitrophenyl]methanesulfonamide]
- inhibition at 15 µM [1]: < 50%
- apoptotic effects (SK-BR-3 cells): do not produce apoptotic effects

SMILES: CN(c1ccc([N+](=O)[O-])cc1OCc1ccccc1)S(C)(=O)=O [Compound 26f, N-methyl-N-(2-benzyloxy-4-nitrophenyl) methanesulfonamide]
- inhibition at 15 µM [1]: < 50%
- apoptotic effects (SK-BR-3 cells): do not produce apoptotic effects

SMILES: CN(c1ccc([N+](=O)[O-])cc1OCc1ccccc1-c1ccccc1)S(C)(=O)=O [Compound 29c, N-methyl-N-[2-(2′-phenylbenzyloxy)-4-nitrophenyl]methanesulfonamide]
- inhibition at 15 µM [1]: < 50%
- apoptotic effects (SK-BR-3 cells): do not produce apoptotic effects

SMILES: CN(c1ccc([N+](=O)[O-])cc1OCc1ccc([N+](=O)[O-])cc1)S(C)(=O)=O [Compound 27c, N-methyl-N-[2-(4′-nitrobenzyloxy)-4-nitrophenyl]methanesulfonamide]
- inhibition at 15 µM [1]: < 50%
- apoptotic effects (SK-BR-3 cells): do not produce apoptotic effects
